Measurements taken from ChEMBL document CHEMBL5036327, “Systematic Optimization of Potent and Orally Bioavailable Purine Scaffold as a Dual Inhibitor of Toll-Like Receptors 7 and 9” (J Med Chem, 2021).
≈ marks a conversion by molar mass, not a printed value.

Columns and labels:
Toll-like receptor 7 = molecular target: T1, Toll-like receptor 7 (Homo sapiens, UniProt Q9NYK1); assay: Antagonist activity at human TLR7 expressed in HEK-blue-HTLR7 cells assessed as inhibition of CL264-induced NFkappaB activation measured after overnight incubation by SEAP-based spectrophotometry assay
T1 sequence (Q9NYK1 whole entry): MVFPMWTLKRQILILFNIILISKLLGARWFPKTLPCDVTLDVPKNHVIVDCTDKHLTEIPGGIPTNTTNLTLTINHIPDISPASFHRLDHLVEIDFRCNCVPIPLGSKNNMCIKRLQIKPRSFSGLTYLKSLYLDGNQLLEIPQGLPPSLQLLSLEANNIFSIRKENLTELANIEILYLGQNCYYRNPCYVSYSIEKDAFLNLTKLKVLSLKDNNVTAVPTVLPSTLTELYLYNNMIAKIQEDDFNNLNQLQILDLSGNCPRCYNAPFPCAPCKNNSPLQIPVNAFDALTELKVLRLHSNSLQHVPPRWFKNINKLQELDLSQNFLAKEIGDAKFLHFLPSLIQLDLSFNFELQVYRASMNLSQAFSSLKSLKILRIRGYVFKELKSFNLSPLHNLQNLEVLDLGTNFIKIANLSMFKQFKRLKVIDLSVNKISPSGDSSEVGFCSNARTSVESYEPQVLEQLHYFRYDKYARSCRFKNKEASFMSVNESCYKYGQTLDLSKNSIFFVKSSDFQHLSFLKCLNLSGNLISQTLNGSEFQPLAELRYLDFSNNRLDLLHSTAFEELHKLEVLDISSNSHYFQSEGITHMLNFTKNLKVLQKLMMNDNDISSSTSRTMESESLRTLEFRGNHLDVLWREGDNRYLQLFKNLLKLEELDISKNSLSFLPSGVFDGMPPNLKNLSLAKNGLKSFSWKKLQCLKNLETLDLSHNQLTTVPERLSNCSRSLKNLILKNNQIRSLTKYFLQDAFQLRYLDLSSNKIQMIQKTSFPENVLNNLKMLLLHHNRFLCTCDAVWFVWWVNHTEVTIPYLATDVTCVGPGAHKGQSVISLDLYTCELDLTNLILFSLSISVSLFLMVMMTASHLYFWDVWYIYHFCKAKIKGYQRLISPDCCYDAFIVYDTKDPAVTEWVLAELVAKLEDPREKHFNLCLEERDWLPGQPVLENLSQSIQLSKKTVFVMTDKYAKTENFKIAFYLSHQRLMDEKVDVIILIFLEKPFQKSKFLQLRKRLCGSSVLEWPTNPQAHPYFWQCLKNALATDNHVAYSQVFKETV

[1] = Apparent permeability across apical to basolateral side in human Caco2 cells at 10 uM measured after 10 mins by LC-MS/MS analysis; conditions: Caco-2
[2] = Apparent permeability across basolateral to apical side in human Caco2 cells at 10 uM measured after 10 mins by LC-MS/MS analysis; conditions: Caco-2
[3] = Efflux ratio of apparent permeability across apical to basolateral over basolateral to apical side in human Caco2 cells measured after 10 mins by LC-MS/MS analysis; conditions: Caco-2
[4] = Stability in human plasma measured after 2 hrs by LC-MS/MS analysis
[5] = Stability in mouse plasma measured after 2 hrs by LC-MS/MS analysis
[6] = Metabolic stability in human liver microsomes assessed as half life incubated for 60 mins by LC-MS/MS analysis
[7] = Metabolic stability in human liver microsomes assessed as compound remaining incubated for 60 mins by LC-MS/MS analysis
[8] = Metabolic stability in human liver microsomes assessed as intrinsic clearance incubated for 60 mins by LC-MS/MS analysis
[9] = Metabolic stability in mouse liver microsomes assessed as intrinsic clearance incubated for 60 mins by LC-MS/MS analysis
[10] = metabolic stability in human liver microsomes assessed as hepatic extraction ratio incubated for 60 mins by LC-MS/MS analysis
[11] = Metabolic stability in mouse liver microsomes assessed as hepatic extraction ratio incubated for 60 mins by LC-MS/MS analysis
Toll-like receptor 8 = molecular target: T2, Toll-like receptor 8 (Homo sapiens, UniProt Q9NR97); assay: Antagonist activity at human TLR8 expressed in […] cells assessed as inhibition of CL075-induced NFkappaB activation measured after overnight incubation by SEAP-based spectrophotometry assay; type: cell-based, HEK293
T2 sequence (Q9NR97 whole entry): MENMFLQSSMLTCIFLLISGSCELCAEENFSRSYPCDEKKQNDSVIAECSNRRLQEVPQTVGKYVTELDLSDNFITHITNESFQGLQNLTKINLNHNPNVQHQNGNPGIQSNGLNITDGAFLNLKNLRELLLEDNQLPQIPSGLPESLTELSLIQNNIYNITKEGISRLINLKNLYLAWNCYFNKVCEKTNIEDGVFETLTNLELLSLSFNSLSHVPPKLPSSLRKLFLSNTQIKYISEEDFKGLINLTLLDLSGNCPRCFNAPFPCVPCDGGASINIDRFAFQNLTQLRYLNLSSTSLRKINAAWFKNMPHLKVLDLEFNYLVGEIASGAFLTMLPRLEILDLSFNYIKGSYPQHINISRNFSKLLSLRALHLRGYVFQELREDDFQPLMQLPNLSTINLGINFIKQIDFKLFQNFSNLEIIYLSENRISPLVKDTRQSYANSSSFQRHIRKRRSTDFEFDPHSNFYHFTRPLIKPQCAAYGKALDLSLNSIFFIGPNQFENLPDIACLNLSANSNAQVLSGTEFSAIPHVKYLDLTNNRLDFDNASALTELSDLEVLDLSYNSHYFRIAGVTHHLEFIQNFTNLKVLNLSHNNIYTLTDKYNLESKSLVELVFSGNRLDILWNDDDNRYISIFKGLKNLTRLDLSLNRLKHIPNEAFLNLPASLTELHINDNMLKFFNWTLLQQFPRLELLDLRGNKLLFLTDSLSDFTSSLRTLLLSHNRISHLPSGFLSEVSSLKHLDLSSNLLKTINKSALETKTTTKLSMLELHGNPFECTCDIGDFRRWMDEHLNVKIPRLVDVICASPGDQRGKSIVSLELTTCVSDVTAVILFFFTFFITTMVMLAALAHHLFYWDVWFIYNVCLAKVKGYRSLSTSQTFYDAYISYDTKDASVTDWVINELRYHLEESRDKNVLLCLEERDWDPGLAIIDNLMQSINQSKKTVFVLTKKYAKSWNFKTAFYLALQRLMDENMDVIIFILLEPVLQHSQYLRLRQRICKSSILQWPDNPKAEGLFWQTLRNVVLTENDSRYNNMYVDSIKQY

physchem = conditions: buffer, pH 7.4
Description: Aqueous solubility of compound at pH 7.4 measured after 18 hrs by UV-spectrometry

Compound `Fc1ccc(CNc2nc(N3CCN(C4CCCC4)CC3)c3ncn(CCCN4CCCC4)c3n2)cc1` has an IC50 (Toll-like receptor 7) of 13.6 µM, a Papp A→B at 10 min, 10 µM [1] of 32.7 ×10⁻⁶ cm/s and a Papp B→A at 10 min, 10 µM [2] of 62 ×10⁻⁶ cm/s. For the same compound, the efflux ratio at 10 min [3] was 1.9, the remaining at 2 h [4] was 75% and the remaining at 2 h [5] was 20%. For the same compound, the half-life at 1 h [6] was 17.9 min, the remaining at 1 h [7] was 2.9% and the microsomal CLint at 1 h [8] was 38.8 µL/min/mg. For the same compound, the microsomal CLint at 1 h [9] was 23.1 µL/min/mg, the hepatic extraction ratio at 1 h [10] was 0.642 and the hepatic extraction ratio at 1 h [11] was 0.385. The IC50 (Toll-like receptor 8) was greater than 30 µM and the solubility at 18 h (physchem) was 28 µg/mL (≈ 55.3 µM).
